What was measured:
HOP-62 = test: NCI-60 SRB screen; assay type: cell-based, human; conditions: Homo sapiens; single dose 10^−5 M; HOP-62, Non-small cell lung carcinoma; read-out: Growth inhibition (%)
SW-620 = test: NCI-60 SRB screen; assay type: cell-based; conditions: Homo sapiens; single dose 10^−5 M; SW-620, Colon cancer; read-out: Growth inhibition (%)
HOP-92 = test: NCI-60 SRB screen; assay type: cell-based, human; conditions: Homo sapiens; single dose 10^−5 M; HOP-92, Non-small cell lung carcinoma; read-out: Growth inhibition (%)
NCI-H522 = test: NCI-60 SRB screen; assay type: cell-based, human; conditions: Homo sapiens; single dose 10^−5 M; NCI-H522, Non-small cell lung carcinoma; read-out: Growth inhibition (%)
SF-295 = test: NCI-60 SRB screen; assay type: cell-based, human; conditions: Homo sapiens; single dose 10^−5 M; SF-295, CNS cancer; read-out: Growth inhibition (%)
A549/ATCC = test: NCI-60 SRB screen; assay type: cell-based, human; conditions: Homo sapiens, single dose 10^−5 M, Non-small cell lung carcinoma, read-out: Growth inhibition (%)
ACHN = test: NCI-60 SRB screen; assay type: cell-based; conditions: Homo sapiens, single dose 10^−5 M, Renal cancer, read-out: Growth inhibition (%)
SK-MEL-5 = test: NCI-60 SRB screen; assay type: cell-based, human; conditions: Homo sapiens; single dose 10^−5 M; SK-MEL-5, Melanoma; read-out: Growth inhibition (%)
COLO 205 = test: NCI-60 SRB screen; assay type: cell-based, human; conditions: Homo sapiens; single dose 10^−5 M; COLO 205, Colon cancer; read-out: Growth inhibition (%)
OVCAR-8 = test: NCI-60 SRB screen; assay type: cell-based, human; conditions: Homo sapiens; single dose 10^−5 M; OVCAR-8, Ovarian cancer; read-out: Growth inhibition (%)
[1] = tested on: panel of 60 cancer cell lines; test: NCI-60 SRB screen, mean or range over the panel; assay type: cell-based, human; conditions: Homo sapiens; mean over the cell lines; single dose 10^−5 M; read-out: Mean growth inhibition (%)
SF-268 = test: NCI-60 SRB screen; assay type: cell-based, human; conditions: Homo sapiens; single dose 10^−5 M; SF-268, CNS cancer; read-out: Growth inhibition (%)
K-562 = test: NCI-60 SRB screen; assay type: cell-based, human; conditions: Homo sapiens, K562; single dose 10^−5 M; K-562, Leukaemia; read-out: Growth inhibition (%)
UACC-62 = test: NCI-60 SRB screen; assay type: cell-based, human; conditions: Homo sapiens; single dose 10^−5 M; UACC-62, Melanoma; read-out: Growth inhibition (%)
M14 = test: NCI-60 SRB screen; assay type: cell-based, human; conditions: Homo sapiens; single dose 10^−5 M; M14, Melanoma; read-out: Growth inhibition (%)
HL-60(TB) = test: NCI-60 SRB screen; assay type: cell-based, human; conditions: Homo sapiens; single dose 10^−5 M; HL-60(TB), Leukaemia; read-out: Growth inhibition (%)
NCI-H322M = test: NCI-60 SRB screen; assay type: cell-based, human; conditions: Homo sapiens, single dose 10^−5 M, Non-small cell lung carcinoma, read-out: Growth inhibition (%)
OVCAR-4 = test: NCI-60 SRB screen; assay type: cell-based, human; conditions: Homo sapiens; single dose 10^−5 M; OVCAR-4, Ovarian cancer; read-out: Growth inhibition (%)
SK-OV-3 = test: NCI-60 SRB screen; assay type: cell-based, human; conditions: Homo sapiens; single dose 10^−5 M; SK-OV-3, Ovarian cancer; read-out: Growth inhibition (%)
CAKI-1 = test: NCI-60 SRB screen; assay type: cell-based, human; conditions: Homo sapiens; single dose 10^−5 M; CAKI-1, Renal cancer; read-out: Growth inhibition (%)
786-0 = test: NCI-60 SRB screen; assay type: cell-based; conditions: Homo sapiens; single dose 10^−5 M; 786-0, Renal cancer; read-out: Growth inhibition (%)
LOX IMVI = test: NCI-60 SRB screen; assay type: cell-based, human; conditions: Homo sapiens, single dose 10^−5 M, Melanoma, read-out: Growth inhibition (%)
RXF 393 = test: NCI-60 SRB screen; assay type: cell-based, human; conditions: Homo sapiens; single dose 10^−5 M; RXF 393, Renal cancer; read-out: Growth inhibition (%)
HCT-15 = test: NCI-60 SRB screen; assay type: cell-based, human; conditions: Homo sapiens; single dose 10^−5 M; HCT-15, Colon cancer; read-out: Growth inhibition (%)
EKVX = test: NCI-60 SRB screen; assay type: cell-based, human; conditions: Homo sapiens, single dose 10^−5 M, Non-small cell lung carcinoma, read-out: Growth inhibition (%)
SK-MEL-28 = test: NCI-60 SRB screen; assay type: cell-based; conditions: Homo sapiens; single dose 10^−5 M; SK-MEL-28, Melanoma; read-out: Growth inhibition (%)
NCI-H460 = test: NCI-60 SRB screen; assay type: cell-based, human; conditions: Homo sapiens; single dose 10^−5 M; NCI-H460, Non-small cell lung carcinoma; read-out: Growth inhibition (%)
TK-10 = test: NCI-60 SRB screen; assay type: cell-based, human; conditions: Homo sapiens; single dose 10^−5 M; TK-10, Renal cancer; read-out: Growth inhibition (%)
OVCAR-3 = test: NCI-60 SRB screen; assay type: cell-based, human; conditions: Homo sapiens; single dose 10^−5 M; OVCAR-3, Ovarian cancer; read-out: Growth inhibition (%)
NCI-H23 = test: NCI-60 SRB screen; assay type: cell-based, human; conditions: Homo sapiens; single dose 10^−5 M; NCI-H23, Non-small cell lung carcinoma; read-out: Growth inhibition (%)
NCI-H226 = test: NCI-60 SRB screen; assay type: cell-based, human; conditions: Homo sapiens; single dose 10^−5 M; NCI-H226, Non-small cell lung carcinoma; read-out: Growth inhibition (%)
MOLT-4 = test: NCI-60 SRB screen; assay type: cell-based; conditions: Homo sapiens; single dose 10^−5 M; MOLT-4, Leukaemia; read-out: Growth inhibition (%)
UACC-257 = test: NCI-60 SRB screen; assay type: cell-based, human; conditions: Homo sapiens; single dose 10^−5 M; UACC-257, Melanoma; read-out: Growth inhibition (%)
UO-31 = test: NCI-60 SRB screen; assay type: cell-based, human; conditions: Homo sapiens; single dose 10^−5 M; UO-31, Renal cancer; read-out: Growth inhibition (%)
NCI/ADR-RES = test: NCI-60 SRB screen; assay type: cell-based, human; conditions: Homo sapiens, single dose 10^−5 M, Ovarian cancer, read-out: Growth inhibition (%)
IGROV1 = test: NCI-60 SRB screen; assay type: cell-based, human; conditions: Homo sapiens, IGROV-1; single dose 10^−5 M; IGROV1, Ovarian cancer; read-out: Growth inhibition (%)
SR = test: NCI-60 SRB screen; assay type: cell-based; conditions: Homo sapiens, single dose 10^−5 M, Leukaemia, read-out: Growth inhibition (%)
SN12C = test: NCI-60 SRB screen; assay type: cell-based, human; conditions: Homo sapiens, SN12C; single dose 10^−5 M; SN 12 C, Renal cancer; read-out: Growth inhibition (%)
MDA-MB-435 = test: NCI-60 SRB screen; assay type: cell-based; conditions: Homo sapiens, MDA-MB-435, read-out: Growth inhibition (%)
KM12 = test: NCI-60 SRB screen; assay type: cell-based, human; conditions: Homo sapiens; single dose 10^−5 M; KM12, Colon cancer; read-out: Growth inhibition (%)
HCC-2998 = test: NCI-60 SRB screen; assay type: cell-based, human; conditions: Homo sapiens; single dose 10^−5 M; HCC-2998, Colon cancer; read-out: Growth inhibition (%)
HCT-116 = test: NCI-60 SRB screen; assay type: cell-based, human; conditions: Homo sapiens; single dose 10^−5 M; HCT-116, Colon cancer; read-out: Growth inhibition (%)
SK-MEL-2 = test: NCI-60 SRB screen; assay type: cell-based, human; conditions: Homo sapiens; single dose 10^−5 M; SK-MEL-2, Melanoma; read-out: Growth inhibition (%)
HT-29 = test: NCI-60 SRB screen; assay type: cell-based; conditions: Homo sapiens; single dose 10^−5 M; HT-29, Colon cancer; read-out: Growth inhibition (%)

Q: Which results are given for `N#CC1=C(Nc2ccccc2F)NC(c2cccc([N+](=O)[O-])c2)c2sc3c(F)cccc3c21` (centres unmarked) [Compound 10, 4-Cyano-8-fluoro-3((2-fluorophenyl)amino)-1–(3-nitrophenyl)-1,2-dihydro[1]benzothieno[2,3-c]pyridine]?
A: inhibition at 10 µM (HOP-62): 8.27%; inhibition at 10 µM (SW-620): 2.45%; inhibition at 10 µM (HOP-92): 9.6%; inhibition at 10 µM (NCI-H522): -2.13%; inhibition at 10 µM (SF-295): -4.19%; inhibition at 10 µM (A549/ATCC): -7.45%; inhibition at 10 µM (ACHN): 9.97%; inhibition at 10 µM (SK-MEL-5): -19.6%; inhibition at 10 µM (COLO 205): -13.3%; inhibition at 10 µM (OVCAR-8): -6.58%; inhibition at 10 µM [1]: -0.095%; inhibition at 10 µM (SF-268): 4.7%; inhibition at 10 µM (K-562): 2.72%; inhibition at 10 µM (UACC-62): 6.75%; inhibition at 10 µM (M14): 1.68%; inhibition at 10 µM (HL-60(TB)): -13.1%; inhibition at 10 µM (NCI-H322M): -0.11%; inhibition at 10 µM (OVCAR-4): -3.9%; inhibition at 10 µM (SK-OV-3): 10.1%; inhibition at 10 µM (CAKI-1): 21.1%; inhibition at 10 µM (786-0): -12.3%; inhibition at 10 µM (LOX IMVI): 3.26%; inhibition at 10 µM (RXF 393): -5.32%; inhibition at 10 µM (HCT-15): -5.46%; inhibition at 10 µM (EKVX): 9.27%; inhibition at 10 µM (SK-MEL-28): -11%; inhibition at 10 µM (NCI-H460): -1.1%; inhibition at 10 µM (TK-10): -55.4%; inhibition at 10 µM (OVCAR-3): -1.64%; inhibition at 10 µM (NCI-H23): -1.96%; inhibition at 10 µM (NCI-H226): 12.8%; inhibition at 10 µM (MOLT-4): 6.48%; inhibition at 10 µM (UACC-257): -23.2%; inhibition at 10 µM (UO-31): 31.2%; inhibition at 10 µM (NCI/ADR-RES): -8.27%; inhibition at 10 µM (IGROV1): 16.1%; inhibition at 10 µM (SR): 13%; inhibition at 10 µM (SN12C): 0.49%; inhibition at 10 µM (MDA-MB-435): -4.45%; inhibition at 10 µM (KM12): 0.14%; inhibition at 10 µM (HCC-2998): -20.3%; inhibition at 10 µM (HCT-116): 3.44%; inhibition at 10 µM (SK-MEL-2): 0.67%; inhibition at 10 µM (HT-29): -14.2%
